The text below walks through data of patent publication US20240262795A1, “PYRAZINE COMPOUNDS AS INHIBITORS OF FLT3” (Biomea Fusion, Inc., priority 2021, published 2024).

Assay type in all cases: cell-based, human
The subject of one assay is MV-4-11. Briefly: Proliferation inhibition, CellTiter-Glo, MV-4-11. As to conditions: Homo sapiens, MV4-11, 96 h; MV-4:11 cells, IC50 (4 days), CellTiter-Glo; read-out: MV-4:11 IC50. The source says:
(§1) The proliferation inhibitory effect was investigated in human AML cell lines MOLM-13 (AddexBio: C0003003) and MV-4-11 (ATCC: CRL-9591), and CML cell line […] (ATCC: CRL-3343). Molm-13 is heterozygous for FLT3-ITD mutation, while MV4-11 is homozygous for FLT3-ITD (Quentmeier H, et al., Leukemia. 17(1):120-4). […] Cells were maintained in RPMI-1640 medium (ThermoFisher catalog no. 61870036) supplemented with 10% of Heat Inactivated FBS (ThermoFisher catalog no. A31605) and 1% Pen-Strep (ThermoFisher catalog no. 10378016) and cultured at 37° C. in a humidified incubator with 5% CO2. Cell lines were grown by […], and the cells were maintained in a range 70%-80% confluency.
(§2) ATP is present in all metabolically active cells and is considered as a marker for cell viability and proliferation. Metabolic cell activity was determined using the CellTiter-Glo kit (Promega catalog no. G7572), an ATP monitoring system based on the production of luminescence by the reaction of ATP with added UltraGlo® recombinant luciferase (Kawano et al., 2016, PLOS One, 8; 11(7):e0158888), according to the supplier's experimental recommendations. The assay was based on a 96 well plate format.
(§3) Test compounds were dissolved at 10 mM in DMSO (Sigma catalog no. D8418; purity≥99.9%) and stored at −20° C. Eight concentrations of test compound were assessed in duplicate in an individual test occasion in parallel in the selected cell lines. Gilteratinib and FF-10101 were used as reference compounds and tested in duplicate at eight concentrations. 100% of proliferation is represented by the untreated cells (0.2% DMSO).
(§4) On the day of the experiment, cells were quantified with the cell viability analyzer NucleoCounter (Chemometec NC-200) and diluted with fresh medium to obtain the cell density of about 10,000 cells per 200 μL medium. 200 μL of cell suspension were added into wells in the 96 well plate.
(§5) After 2 hours from seeding cells, compounds at desired concentrations were added using a D300e compound dispenser (Life Sciences Tecan D300) with shaking between each compound dispensed. Assay plates were incubated at 37° C. in a humidified incubator with 5% CO2.
(§6) On day 4 (˜96 hrs after compound addition) assay plates were equilibrated at room temperature for approximately 15 min, and then 40 μL/well of the Promega CellTiterGlo® reagent was added. Contents were mixed for 5 min on an orbital shaker to promote cell lysis, and then incubated at room temperature for an additional 10 min in the dark to stabilize the luminescent signal. Luminescence was read by using a GloMlax GM300 plate reader (Promega) using the luminescence for 96 well plate standard protocol.
(§7) Results were analyzed by GraphPad (Prism) and IC50 values were calculated by non-linear regression using four parameter-logistic equation.
In general terms: ATP-based viability assays read luminescence as a measure of living cells.

Another assay deals with MOLM-13. Briefly: Proliferation inhibition, CellTiter-Glo, MOLM-13. As to conditions: Homo sapiens, 96 h; MOLM-13 cells, IC50 (4 days), CellTiter-Glo; read-out: MOLM-13 IC50.
Excerpt: as §1, §2, §3, §4, §5, §6, §7

The subject of the next assay is K-562. In words: Proliferation inhibition, CellTiter-Glo, K-562. Conditions: Homo sapiens, K562, 96 h; K-562 cells, IC50 (4 days), CellTiter-Glo; read-out: K-562 IC50.
Excerpt: as §1, §2, §3, §4, §5, §6, §7

Molecules are shown by their SMILES.

Usually IC50 stands for the concentration that gives 50% inhibition. As to `CCc1nc(C(N)=O)c(Nc2ccc(F)c(CCNC(=O)CN(C)C(=O)/C=C/CN3CCC3)c2)nc1C1CC1` [Compound 607, (E)-3-((3-(2-(2-(4-(azetidin-1-yl)-N-methylbut-2-enamido)acetamido)ethyl)-4-fluorophenyl)amino)-5-cyclopropyl-6-ethylpyrazine-2-carboxamide], the concentration for half-maximal inhibition (IC50) is 1 to 10 nM with MV-4-11, 1 to 10 nM with MOLM-13 and more than 500 nM in the assay on K-562.
Turning to `CC#CC(=O)N(C)[C@@H](C)C(=O)NCCc1cccc(Nc2nc(N(C)C)c(CC)nc2C(N)=O)c1` [Compound 160, 3-[3-[2-[[(2S)-2-[but-2-ynoyl(methyl)amino]propanoyl]amino]ethyl]anilino]-5-(dimethylamino)-6-ethyl-pyrazine-2-carboxamide], the IC50 in the assay with MV-4-11 is 1 to 10 nM; with MOLM-13 it was 10 to 100 nM; in the assay on K-562 it was more than 500 nM.
For `CCc1cc(C(N)=O)c(Nc2cncc(CCNC(=O)[C@H](C)N(C)C(=O)/C=C/CN(C)C)c2)nc1C1CC1` [Compound 320, 6-cyclopropyl-2-[[5-[2-[[(2S)-2-[[(E)-4-(dimethylamino)but-2-enoyl]-methyl-amino]propanoyl]amino]ethyl]-3-pyridyl]amino]-5-ethyl-pyridine-3-carboxamide] the same measures were 10 to 100 nM, 100 to 500 nM and more than 500 nM.
For `CCc1nc(C(N)=O)c(Nc2cccc(CCNC(=O)[C@H](C)N(C)C(=O)C#CCN(C)C)c2)nc1C` [Compound 244, (S)-3-((3-(2-(2-(4-(dimethylamino)-N-methylbut-2-ynamido)propanamido)ethyl)phenyl)amino)-6-ethyl-5-methylpyrazine-2-carboxamide] the same measures were less than 1 nM, 1 to 10 nM and more than 500 nM.
For `Cc1nc(Nc2cccc(CCNC(=O)[C@H](C)N(C)C(=O)/C=C/CN3CCC3)c2)c(C(N)=O)nc1C` [Compound 214, 3-[3-[2-[[(2S)-2-[[(E)-4-(azetidin-1-yl)but-2-enoyl]-methyl-amino]propanoyl]amino]ethyl]anilino]-5,6-dimethyl-pyrazine-2-carboxamide] the same measures were 10 to 100 nM, 10 to 100 nM and more than 500 nM.
Regarding `CCc1nc(C(N)=O)c(Nc2cccc(CCNC(=O)[C@H](C)N(C)C(=O)CCCN(C)C)c2)nc1N(C)C(C)C` [Compound 318, 3-[3-[2-[[(2S)-2-[4-(dimethylamino)butanoyl-methyl-amino]propanoyl]amino]ethyl]anilino]-6-ethyl-5-[isopropyl(methyl)amino]pyrazine-2-carboxamide], the IC50 was 1 to 10 nM with MV-4-11, 10 to 100 nM in the assay on MOLM-13 and more than 500 nM in the assay with K-562.
For `CCc1nc(C(N)=O)c(Nc2cccc(C[C@@H](C)NC(=O)CN(C)C(=O)/C=C/CN(C)C)c2)nc1C` [Compound 311, 3-[3-[(2R)-2-[[2-[[(E)-4-(dimethylamino)but-2-enoyl]-methyl-amino]acetyl]amino]propyl]anilino]-6-ethyl-5-methyl-pyrazine-2-carboxamide] the same measures were 10 to 100 nM, 100 to 500 nM and more than 500 nM.
In the same order, the values of `CCc1nc(C(N)=O)c(Nc2cccc([C@H](C)CNC(=O)[C@H](C)N(C)C(=O)/C=C/CN(C)C)c2)nc1C` [Compound 325, 3-[3-[(1S)-2-[[(2S)-2-[[(E)-4-(dimethylamino)but-2-enoyl]-methyl-amino]propanoyl]amino]-1-methyl-ethyl]anilino]-6-ethyl-5-methyl-pyrazine-2-carboxamide] are 100 to 500 nM, 100 to 500 nM and more than 500 nM.
Consider `[2H]C([2H])([2H])N(C/C=C/C(=O)N(C)[C@@H](C)C(=O)NCCc1cccc(Nc2nc(C3CC3)c(C)nc2C(N)=O)c1)C([2H])([2H])[2H]` [Compound 248, (S,E)-3-((3-(2-(2-(4-(bis(methyl-d3)amino)-N-methylbut-2-enamido)propanamido)ethyl)phenyl)amino)-5-cyclopropyl-6-methylpyrazine-2-carboxamide], for which the IC50 was 1 to 10 nM in the assay with MV-4-11, 1 to 10 nM with MOLM-13 and more than 500 nM with K-562.
As to `C=CC(=O)N(C)[C@@H](C)C(=O)NCCc1cccc(Nc2nc(N(C)C(C)C)c(C)nc2C(N)=O)c1` [Compound 231, 5-[isopropyl(methyl)amino]-6-methyl-3-[3-[2-[[(2S)-2-[methyl(prop-2-enoyl)amino]propanoyl]amino]ethyl]anilino]pyrazine-2-carboxamide], the results for the IC50 in the assay with MV-4-11, in the assay on MOLM-13 and in the assay with K-562 were 1 to 10 nM, 10 to 100 nM and more than 500 nM, respectively.
`C=CC(=O)N(C)[C@@H](C)C(=O)NCCc1cccc(Nc2nc(N(C)CC)c(C)nc2C(N)=O)c1` [Compound 225, 5-[ethyl(methyl)amino]-6-methyl-3-[3-[2-[[(2S)-2-[methyl(prop-2-enoyl)amino]propanoyl]amino]ethyl]anilino]pyrazine-2-carboxamide]: the IC50 is 1 to 10 nM in the assay with MV-4-11, 10 to 100 nM with MOLM-13 and more than 500 nM with K-562.
For `CCc1nc(C(N)=O)c(Nc2cccc(C[C@H](C)NC(=O)[C@H](C)N(C)C(=O)/C=C/CN(C)C)c2)nc1C` [Compound 317, 3-[3-[(2S)-2-[[(2S)-2-[[(E)-4-(dimethylamino)but-2-enoyl]-methyl-amino]propanoyl]amino]propyl]anilino]-6-ethyl-5-methyl-pyrazine-2-carboxamide], the IC50 in the assay with MV-4-11 was 1 to 10 nM; in the assay with MOLM-13, 10 to 100 nM; in the assay on K-562, more than 500 nM.
For `C=CC(=O)N(C)CC(=O)NCCc1cccc(Nc2nc(N(C)C(C)C)c(C)nc2C(N)=O)c1` [Compound 309, 5-[isopropyl(methyl)amino]-6-methyl-3-[3-[2-[[2-[methyl(prop-2-enoyl)amino]acetyl]amino]ethyl]anilino]pyrazine-2-carboxamide] the same measures were 1 to 10 nM, 100 to 500 nM and more than 500 nM.
In the same order, the values of `Cc1nc(C(N)=O)c(Nc2cccc(CCNC(=O)[C@H](C)N(C)C(=O)/C=C/CN3CCC3)c2)nc1C1CC1` [Compound 242, (S,E)-3-((3-(2-(2-(4-(azetidin-1-yl)-N-methylbut-2-enamido)propanamido)ethyl)phenyl)amino)-5-cyclopropyl-6-methylpyrazine-2-carboxamide] are 1 to 10 nM, 1 to 10 nM and more than 500 nM.
For `Cc1nc(Nc2cc(F)cc(CCNC(=O)[C@H](C)N(C)C(=O)/C=C/CN(C)C)c2)c(C(N)=O)nc1C` [Compound 245, 3-[3-[2-[[(2S)-2-[[(E)-4-(dimethylamino)but-2-enoyl]-methyl-amino]propanoyl]amino]ethyl]-5-fluoro-anilino]-5,6-dimethyl-pyrazine-2-carboxamide] the same measures were 1 to 10 nM, 10 to 100 nM and more than 500 nM.
As for `[2H]C([2H])([2H])N(C(=O)C=C)[C@@H](C)C(=O)NCCc1cccc(Nc2nc(C3CC3)c(CC)nc2C(N)=O)c1` [Compound 237, 5-cyclopropyl-6-ethyl-3-[3-[2-[[(2S)-2-[prop-2-enoyl(trideuteriomethyl)amino]propanoyl]amino]ethyl]anilino]pyrazine-2-carboxamide], the IC50 was 1 to 10 nM in the assay with MV-4-11, 10 to 100 nM with MOLM-13 and more than 500 nM in the assay with K-562.
Regarding `CC#CC(=O)N(C)[C@@H](C)C(=O)NCCc1cccc(Nc2nc(C3CC3)c(CC)nc2C(N)=O)c1` [Compound 209, 3-[3-[2-[[(2S)-2-[but-2-ynoyl(methyl)amino]propanoyl]amino]ethyl]anilino]-5-cyclopropyl-6-ethyl-pyrazine-2-carboxamide], the IC50 in the assay with MV-4-11 was 1 to 10 nM; in the assay on MOLM-13 it was 10 to 100 nM; in the assay on K-562 it was more than 500 nM.
